Square brackets hold non-standard residues; d marks the D form. Peptide text beside a SMILES is read from it. * marks the point of attachment. Sta = CC(C)C[C@H](N)[C@@H](O)CC(=O)O; Boc = CC(C)(C)OC(=O)*
Target: Rhizopuspepsin (Rhizopus chinensis)
Test: Compound was tested for inhibition of Rhizopus chinensis pepsin.

| SMILES | Ki [nM] |
| --- | --- |
| COC(=O)[C@H](CC(C)C)NC(=O)[C@@H](NC(=O)C[C@H](O)[C@H](CC(C)C)NC(=O)[C@H](C)NC(=O)[C@H](C)NC(=O)[C@H](Cc1ccccc1)NC(=O)OC(C)(C)C)C(C)C [2-[2-(4-{2-[2-(2-tert-Butoxycarbonylamino-3-phenyl-propionylamino)-propionylamino]-propionylamino}-3-hydroxy-6-methyl-heptanoylamino)-3-methyl-butyrylamino]-4-methyl-pentanoic acid methyl ester] (Boc-FAA[Sta]VL-OMe) | 78 |
| COC(=O)[C@H](CC(C)C)NC(=O)[C@@H](NC(=O)[C@H](Cc1ccccc1)NC(=O)C[C@H](O)[C@H](CC(C)C)NC(=O)[C@H](C)NC(=O)[C@H](Cc1ccccc1)NC(=O)[C@H](Cc1ccccc1)NC(=O)OC(C)(C)C)C(C)C [2-{2-[2-(4-{2-[2-(2-tert-Butoxycarbonylamino-3-phenyl-propionylamino)-3-phenyl-propionylamino]-propionylamino}-3-hydroxy-6-methyl-heptanoylamino)-3-phenyl-propionylamino]-3-methyl-butyrylamino}-4-methyl-pentanoic acid methyl ester] (Boc-FFA[Sta]FVL-OMe) | 14 |
| COC(=O)[C@H](CC(C)C)NC(=O)[C@@H](NC(=O)[C@H](Cc1ccccc1)NC(=O)C[C@H](O)[C@H](CC(C)C)NC(=O)[C@H](C)NC(=O)[C@H](CC(C)C)NC(=O)[C@H](Cc1ccccc1)NC(=O)OC(C)(C)C)C(C)C [2-{2-[2-(4-{2-[2-(2-tert-Butoxycarbonylamino-3-phenyl-propionylamino)-4-methyl-pentanoylamino]-propionylamino}-3-hydroxy-6-methyl-heptanoylamino)-3-phenyl-propionylamino]-3-methyl-butyrylamino}-4-methyl-pentanoic acid methyl ester] (Boc-FLA[Sta]FVL-OMe) | 9.2 |
| COC(=O)[C@H](CC(C)C)NC(=O)[C@@H](NC(=O)[C@H](Cc1ccccc1)NC(=O)C[C@H](O)[C@H](CC(C)C)NC(=O)[C@H](C)NC(=O)[C@H](C)NC(=O)[C@H](Cc1ccccc1)NC(=O)OC(C)(C)C)C(C)C [2-{2-[2-(4-{2-[2-(2-tert-Butoxycarbonylamino-3-phenyl-propionylamino)-propionylamino]-propionylamino}-3-hydroxy-6-methyl-heptanoylamino)-3-phenyl-propionylamino]-3-methyl-butyrylamino}-4-methyl-pentanoic acid methyl ester] (Boc-FAA[Sta]FVL-OMe) | 51 |

From BindingDB's records for doi:10.1021/jm00162a015 (1987)
